Consider 7 compounds from publication PMC7767221, “Conjugates Containing Two and Three Trithiolato-Bridged Dinuclear Ruthenium(II)-Arene Units as In Vitro Antiparasitic and Anticancer Agents” (Pharmaceuticals, 2020).

Data set [1] has as its system T. gondii β-gal tachyzoites. As to conditions: 72 h, tachyzoites grown in HFF; previously reported; cited from earlier work.
The subject of data set [2] is (D-)A24cisPt8.0 cells. Description: Growth inhibition, 72 h, cell density by Casy cell analyzer. As to conditions: 72 h exposure, mean ± SD. It is filed as cell-based, human. The text has this: (§1) Human ovarian carcinoma cells A2780 and the cisPt resistant variant A2780cisR were purchased from the European Center of Cell Cultures (ECACC, Salisbury, UK). The HEK-293 cell line was kindly provided by Prof. Mühlemann, University of Bern. The A24 cells and its subline (D-)A24cisPt8.0 were described previously. The cancer cells A24 and (D-)A24cisPt8.0 [105] (human lung adenocarcinoma cells wild type A24 and cisPt resistant (D-)A24cisPt8.0 subline), A2780 and A2780cisR (human ovarian cisplatin sensitive and resistant cancer cells), together with HEK293 (human embryonic kidney) cells as model for normal cells, were included in the study for the evaluation of the ruthenium compounds’ selectivity and cross-resistance with cisplatin. The A24 sublines, A2780 and A2780cisR were cultured in RPMI 1640 medium without riboflavin, phenol red and antibiotics, buffered with 4.5 mM HEPES (BioConcept, Allschwil, Switzerland), supplemented with 10% (v/v) fetal bovine serum (FBS) (Thermo Scientific, Weltham, MA, USA) as the only source of flavins, and with 13.5 mM NaHCO3. In order to retain cisplatin resistance in the A2780cisR cell line, 1 µM cisplatin was added to the medium every 2–3 passages. HEK293 cells were cultured in DMEM/F12 medium, supplemented with 10% (v/v) FBS. At subcultivation, cell monolayers were rinsed with PBS and exposed for 3 min to StemPro Accutase Cell Dissociation Reagent (Thermo Scientific, Weltham, MA, USA) at 36.5 °C. Detached cells were resuspended in culture medium. Cell densities were determined using Moxi flow cytometer according to manufacturer instructions (Orflo Technologies, Ketchum, ID, USA). Experiments and subcultivations were performed using light with wavelengths above 520 nm to prevent photochemical artifacts. Cytostatic drug response was quantified as previously reported. Briefly, HEK293, A24, A2780, A2780cisR, and (D-)A24cisPt8.0 single cell suspensions were freshly prepared from confluent cell layers using Accutase and diluted in culture medium to a cell density of 2 × 10^4 or 8 × 10^4 cells/mL (D-)A24cisPt8.0. 150 µl of this suspension was combined with 150 µl of twice the cisPt or Ru-compound concentration in a 96-well microtiter plate (TPP, Trasadingen, Switzerland). Test plates were incubated under standard conditions for 72 h. Cell densities were determined in a Casy I cell analyzer using Casystat software (OLS OMNI Life Science, Bremen, Germany). Drug concentrations leading to 50% growth inhibition compared to controls were calculated using GraphPad Software (La Jolla, CA, USA). Each experiment was done in triplicates.

The next data set relates to A24 cells. Described as above. Format: cell-based, human. As to conditions: 72 h exposure, mean ± SD.
Text: as §1

Data set [3] has as its system A2780 cells. The data set is described as above. It is filed as cell-based, human. The note with it: 72 h exposure, mean ± SD.
Text: as §1

Data set [4] relates to A2780cisR cells. The description is as above. Format: cell-based, human. The note with it: 72 h exposure, mean ± SD.
Text: as §1

Another data set deals with HEK293 cells. Described as above. As to conditions: 72 h exposure, mean ± SD. It is filed as cell-based, human.
Text: as §1

The test system of data set [5] is (D-)A24cisPt8.0 cells. Also noted: method as in PMID 32485798. The note with it: cited from earlier work.
The test system of data set [6] is T. gondii β-gal tachyzoites. The data set can be described thus: T. gondii β-gal tachyzoite proliferation in HFF (β-galactosidase / CPRG assay). Format: cell-based, Toxoplasma gondii. The note with it: 72 h, % of DMSO control. An excerpt:
(§2) If not otherwise stated, all tissue culture media were purchased from Gibco-BRL, and biochemical agents purchased from Sigma-Aldrich. HFF (SCRC-1041.1) were purchased from ATCC, and were maintained in DMEM medium containing 10% fetal calf serum (FCS, Gibco-BRL, Waltham, MA, USA), and antibiotics as described. Transgenic T. gondii β-gal (expressing the β-galactosidase gene from Escherichia coli) were kindly provided by Prof. David Sibley (Washington University, St. Louis, MO, USA) and were maintained in HFF as host cells, and were isolated as described before.
Compounds were prepared as 1 mM stock solutions in DMSO (dimethyl sulfoxide, Sigma, St. Louis, MO, USA). For activity assays, HFF monolayers were cultured in 96 well plates by seeding 5 × 10^3 HFF per well and allowing them to grow to confluence in phenol-red free culture medium at 37 °C/5% CO2. For infection, T. gondii β-gal tachyzoites were separated from their host cells as described, parasites were isolated and HFF monolayers were infected with freshly isolated tachyzoites (1 × 10^3 per well), with compounds solutions added concomitantly during infection.
For the primary screening, T. gondii β-gal infected HFF were exposed to 0.1 and 1µM of each compound for a period of 72 h, or the corresponding concentration of DMSO (0.01% and 0.1%, respectively) as control. For the determination of IC50 values against T. gondii β-gal, compounds were added at 8 concentrations: 0.007, 0.01, 0.03, 0.06, 0.12, 0.25, 0.5, and 1 µM. After 72 h of culture at 37 °C/5% CO2, the medium was aspirated, and cells were permeabilized by adding 90 µL PBS (phosphate buffered saline) containing 0.05% Triton X-100. After addition of 10 µL 5 mM chlorophenol red-β-D-galactopyranoside (CPRG; Roche Diagnostics, Rotkreuz, Switzerland) dissolved in PBS, the absorption shift was measured at 570 nm wavelength at various time points using an EnSpire® multimode plate reader (PerkinElmer, Inc, Waltham, MA, USA). For the primary screening at 0.1 and 1 μM, the activity, measured as the release of chlorophenol red over time, was calculated as percentage from the respective DMSO control, which represented 100% of T. gondii β-gal growth. For the IC50 assays, the activity measured as the release of chlorophenol red over time was proportional to the number of live parasites down to 50 per well as determined in pilot assays. IC50 values were calculated after the logit-log-transformation of relative growth and subsequent regression analysis. All calculations were performed using the corresponding software tool contained in the Excel software package (Microsoft, Redmond, WA, USA).

The test system of data set [7] is HFF (human foreskin fibroblasts). Description: Cytotoxicity in uninfected confluent HFF host cells (AlamarBlue assay). It is filed as cell-based. The note with it: 72 h, non-infected HFF.
Text: as §2
Cytotoxicity assays using uninfected confluent HFF host cells were performed as previously described by AlamarBlue assay. In brief, confluent HFF monolayers in 96 well-plates were exposed to 0.1, 1 and 2.5 µM of each compound. Non-treated HFF as well as DMSO controls (0.01%, 0.1% and 0.25%) were included. After 72 h of incubation at 37 °C/5% CO2, the medium was removed, and plates were washed once with PBS. Resazurin stock solution was diluted 1:200 in PBS and 200 µL were added to each well. Plates were read at excitation wavelength 530 nm and emission wavelength […] at the EnSpire® multimode plate reader (PerkinElmer, Inc). Fluorescence was measured at different timepoints. Relative fluorescence units were calculated from timepoints with linear increase.
On the technique in general: Alamar Blue is a resazurin reagent that responds to reducing activity.

The test system of data set [8] is Neospora caninum. More on the design: method as in PMID 28652238, PMID 30620038, PMID 31469986. As to conditions: read-out: N. caninum proliferation IC50; cited from earlier work.
Data set [9] concerns Neospora caninum. Also noted: method as in PMID 28652238, PMID 30620038, PMID 31469986. The note with it: applied orally, neosporosis mouse model; cited from earlier work.
Another data set has as its system T. gondii. More on the design: method as in PMID 28652238. As to conditions: cited from earlier work; for parasiticidal action on T. gondii: applied at 250 nM; for IC50: read-out: T. gondii proliferation IC50.
Data set [10] deals with A2780 cells. As to conditions: read-out: IC50 against A2780 cells; cited from earlier work.
The subject of data set [11] is A2780cisR cells. Also noted: method as in PMID 27561129, doi:10.1016/j.jorganchem.2014.10.050, PMID 27187018. As to conditions: read-out: IC50 against A2780cisR cells; cited from earlier work.
The subject of a further data set is HFF host cells. The note with it: cited from earlier work.

Where two headings read alike, the source gives them in different places.

For the compound `CCc1nc(N)nc(N)c1-c1ccc(Cl)cc1` [Pyrimethamine, pyrimethamine], the IC50 in data set [1] was 326 nM.

`N.N.[Cl][Pt][Cl]` [cisPt, cis-diamminedichloroplatinum(II)]: the IC50 amounted to 8.89 ± 0.446 µM in the data set with (D-)A24cisPt8.0 cells [2]; 0.333 ± 0.075 µM in the data set on A24 cells; 0.21 ± 0.119 µM in the data set on A2780 cells [3]; 4.08 ± 0.21 µM in the data set on A2780cisR cells [4]; 0.515 ± 0.064 µM in the data set on HEK293 cells. In the data set on (D-)A24cisPt8.0 cells [5], the “resistance to cisplatin of (D-)A24cisPt8.0 subline compared to the A24 cells” value is “approximately 30 fold”.

With “[(η6-p-MeC6H4Pri)2Ru2(μ2-SCH2C6H4-p-But)2(μ2-SC6H4-p-NH)-(CO)-m-C6H4-(CO)-(p-NH-C6H4-μ2S)Ru2(μ2-SCH2C6H4-p-But)2(η6-p-MeC6H4Pri)2]Cl2 [Compound 17]”, the “T. gondii β-gal growth (%) 0.1 µM” value in data set [6] is reported as 117 ± 7%. Also, the “T. gondii β-gal growth (%) 1 µM” value in [6] is recorded as 109 ± 6%. Besides, in data set [7], the “HFF viability (%) 0.1 µM” value is 102 ± 2%. For the same compound, the “HFF viability (%) 1 µM” value in data set [7] amounted to 106 ± 7%. For the same compound, the IC50 in the data set with (D-)A24cisPt8.0 cells [2] turned out to be 0.09 ± 0.003 µM; with A24 cells it was 0.24 ± 0.016 µM; with A2780 cells [3], 0.416 ± 0.106 µM; with A2780cisR cells [4], 0.644 ± 0.08 µM; in the data set with HEK293 cells it was 0.447 ± 0.043 µM.

In the case of “[(η6-p-MeC6H4Pri)2Ru2(μ2-SCH2C6H4-p-But)2(μ2-SC6H4-p-O)-(CO)(CH2)3(CO)-(p-O-C6H4-μ2S)Ru2(μ2-SCH2C6H4-p-But)2(η6-p-MeC6H4Pri)2]Cl2 [Compound 7]”, the “T. gondii β-gal growth (%) 0.1 µM” value in [6] is listed as 68 ± 2%. For the same compound, in data set [6], the “T. gondii β-gal growth (%) 1 µM” value was determined as 0 ± 6%. Besides, in [7], the “HFF viability (%) 0.1 µM” value came out at 76 ± 2%. Besides, the “HFF viability (%) 1 µM” value in data set [7] was found to be 25 ± 4%. Moreover, the IC50 in the data set on (D-)A24cisPt8.0 cells [2] stood at 0.053 ± 0.007 µM; in the data set on A24 cells, 0.033 ± 0.002 µM; in the data set with A2780 cells [3], 0.097 ± 0.041 µM; in the data set with A2780cisR cells [4], 0.072 ± 0.008 µM; in the data set with HEK293 cells it was 0.085 ± 0.026 µM.

Consider “[(η^6-p-MeC6H4Pr^i)2Ru2(µ2-S-p-C6H4R)3]^+ with R = p-Bu^t”, for which the IC50 in the data set with Neospora caninum [8] is 5 nM; in the data set on T. gondii it was 62 nM; with A2780 cells [10] it was 30 nM; with A2780cisR cells [11], 30 nM. Also, the “parasite load in the central nervous system” value (from here on “parasite load”) in the data set on Neospora caninum [9] is “did not reduce parasite load in the central nervous system”. Besides, in the data set with T. gondii, the “parasiticidal action on T. gondii” value is listed as “did not act in a parasiticidal manner”. For the same compound, in the data set on HFF host cells, the “dosage that did not affect HFF host cells” value was ≥ 200 µM.

Consider “[(η^6-p-MeC6H4Pr^i)2Ru2(µ2-S-p-C6H4R)3]^+ with R = p-Me [A]”, for which the IC50 with Neospora caninum [8] was 15 nM. The “parasite load” value in the data set on Neospora caninum [9] was “did not reduce parasite load in the central nervous system”. Further, in the data set on T. gondii, the “parasiticidal action on T. gondii” value was “did not act in a parasiticidal manner” and the IC50 was 34 nM. Besides, in the data set with HFF host cells, the “dosage that did not affect HFF host cells” value was ≥ 200 µM.

Take “[(η^6-p-MeC6H4Pr^i)2Ru2(µ2-SR^1)(µ2-SR^2)2]^+ with R^1 = CH2-C6H4-p-Bu^t, R^2 = C6H4-p-OH, X = Cl^- [D]”: the IC50 in the data set on Neospora caninum [8] is 1 nM. Also, the “parasite load” value in the data set with Neospora caninum [9] is “did not reduce parasite load in the central nervous system”. In the data set with T. gondii, the “parasiticidal action on T. gondii” value is recorded as “did not act in a parasiticidal manner”.
